In patent US20040197838A1, “Phosphorylated histone h2b as apoptosis marker” (priority 2001, published 2004):
Where a chain is given by its changes, count along the chain named.

Legend:
HL-60 cells [1] = assay: Western blots of histones from HL-60 cells after cytotoxic agent treatment; assay type: cell-based, human; conditions: for Levels of H2B S14 Phons Induction: etoposide 20 ug/mL, anisomycin 25 ng/mL, anti-Fas 15 ng/mL
Description: (§1) Cell culture, drug and UV treatment, and harvesting for protein and DNA: HL-60 cells were cultured in RPMI with 10% FBS whereas 293T, HeLa, HepG2, and IMR90 were grown in DMEM with 10% FBS. Etoposide, anisomycin, […] and anti-Fas were purchased from Sigma. To induce apoptosis, drugs were used in these concentration 20 ug/mL for etoposide, 25 ng/mL anisomycin and 15 ng/mL anti-Fas. For UV induction of apoptosis, 40-100 J/m^2 was used (Biorad GS Gene Linker UV chamber). After induction of apoptosis the growth media was changed and harvested at various times afterward. Control cells were either treated with DMSO or mock-treated.
(§2) After the desired treatment, cells were subjected to any of the following: resuspension in SDS-lysis buffer (Laemmli's sample buffer), nuclear extraction, acid extraction for histones, or genomic DNA extraction. Nuclei were isolated by lysis in detergent and low speed spin as described in Strahl et al., (2001) Curr Biol 11, 996-1000. These nuclei can either be salt extracted for nuclear proteins (see below) or acid extracted in 0.4 N H2SO4. After incubating on ice for 2-4 hours, high speed centrifugation is done to remove the insoluble pellet. 5.4% of Percholic acid was added to the supernatant and the precipitated histones were resuspended in water.
(§3) Western blot analysis is performed as described in (Briggs et al., (2001) Genes Dev 15, 3286-3295) 1:1000 of α-phos (S14) H2B, 1:2500 of α-N-Mst1, 1:400 of α-myc (9E10 from Santa Cruz), 1:800 of α-PARP (UBI), 1:1000 of α-phos H2A.X (UBI), and 1:5000 of ax-Acetyl H4 primary antibodies were used. HRP-conjugated rabbit secondary (Amersham Pharmacia) was used at 1:5000. For chemiluminescence, the ECL plus kit (Amersham Pharmacia) was used for detection.
(§4) Initially, HL-60 (human leukemia cell line) cells were treated with etoposide (VP-16) to induce apoptosis. After treatment for various length of time, histones were isolated by acid extraction and examined by Western blot using the S14P antibody. […] To confirm the induction of apoptosis, soluble DNA was extracted from parallel samples at identical time points. The appearance of a ‘DNA ladder’, indicative of apoptotic DNA fragmentation at 4 hour post treatment, coincides precisely with the onset of H2B Ser14 phosphorylation. Furthermore, an increase of H2B S14 phosphorylation was observed that correlates with the exposure time to the etoposide.
(§5) After Cytotoxic agent treatments, cells were harvested. The level of H2B S14 phosphorylation is determined by Western blots using ePhos (S14) H2B.

HL-60 cells [2] = assay: Apoptotic DNA fragmentation (DNA ladder) after VP-16 treatment; assay type: cell-based, human
Description: Genomic DNA was harvested by lysing the cell pellet in 10 mM Tris pH 9.0, 1 mM EDTA, 10 mM NaCl, 1% w/v SDS, 1 mg/mL of proteinase K at 50° C. for 4-5 hours. To remove proteins, a phenol/chloroform extraction was performed and then the DNA was precipitated in 0.3 M sodium acetate and 70% Ethanol. After centrifugation, the pellet was resuspended in TE and the RNA was digested by adding 1 mg/mL Rnase A for 1 hour at room temp. DNA was separated in 1.2% agarose TAE gel.
as §4

HepG2 = assay: Western blot for H2B S14 phosphorylation after cytotoxic agent treatment; assay type: cell-based
Description: as §1
as §2, with “5.4% of Percholic acid was added to the supernatant and the precipitated histones were resuspended in water.” left out
as §5

HL-60 cells [3] = assay: Caspase 3 inhibitor pre-incubation before VP16, Western analysis of Mst1 cleavage and H2B Ser14 phosphorylation; assay type: cell-based, human; conditions: then VP16 for 4 hours
Description: as §3
If H2B (Ser14) phosphorylation is dependent on the cleavage of Mst1, this histone modification should be sensitive to documented caspase 3 inhibitors such as the DEVD peptide. To test this prediction, HL-60 cells were pre-incubated with varying amounts of z-DEVD-fmk (Trevigen) before subsequent treatment with VP16 for 4 hours. Cell extracts were then harvested for western analysis. […] Accordingly, H2B is likely phosphorylated in vivo at Ser14 by the caspase 3-generated form of Mst1.

[4] = target: histone H2B (substrate of the in vitro kinase reactions)

## COc1ccc(C[C@H]2NC[C@H](O)[C@H]2OC(C)=O)cc1 [Anisomycin]
HL-60 cells [1]; Western blot
  Levels of H2B S14 Phons Induction: High

## COc1cc([C@@H]2c3cc4c(cc3[C@@H](O[C@@H]3O[C@@H]5CO[C@@H](C)O[C@H]5[C@H](O)[C@H]3O)[C@H]3COC(=O)[C@H]23)OCO4)cc(OC)c1O [Etoposide (VP16), Etoposide]
HL-60 cells [1]; Western blot
  Time of H2A.X phosphorylation after treatment: one
  Levels of H2B S14 Phons Induction: High
HL-60 cells [1]; Western blot with S14P antibody
  Time post treatment at which H2B phosphorylation signal is strongly enhanced: around 4 hours
HL-60 cells [2]
  Time post treatment of appearance of DNA ladder (apoptotic DNA fragmentation): 4 h

## COS(C)(=O)=O [MMS]
HepG2
  Levels of H2B S14 Phons Induction: Medium

## z-DEVD-fmk
HL-60 cells [3]; 20 mM inhibitor
  H2B phosphorylation: only a modest decrease
  Proportion of truncated Mst1 over full length Mst1: only a modest decrease
HL-60 cells [3]; 200 mM inhibitor
  H2B Ser14 phosphorylation: inhibited
  Mst1 cleavage: inhibited

B1: myc-tagged C-terminal truncated form of Mst1 (protein)
chain: METVQLRNPPRRQLKKLDEDSLTKQPEEVFDVLEKLGEGSYGSVYKAIHKETGQIVAIKQVPVESDLQEIIKEISIMQQCDSPHVVKYYGSYFKNTDLWIVMEYCGAGSVSDIIRLRNKTLTEDEIATILQSTLKGLEYLHFMRKIHRDIKAGNILLNTEGHAKLADFGVAGQLTDTMAKRNTVIGTPFWMAPEVIQEIGYNCVADIWSLGITAIEMAEGKPPYADIHPMRAIFMIPTNPPPTFRKPELWSDNFTDFVKQCLVKSPEQRATATQLLQHPFVRSAKGVSILRDLINEAMDVKLKRQESQQREVDQDDEENSEEDEMD
[4]
  IP kinase reaction with non-radioactive ATP, Western blot with the S14P antibody: both Mst1 FL and DC phosphorylate H2B at Ser14 as detected by the S14P antibody
  in vitro kinase assay on myc immunoprecipitates, with g(32P)-ATP or cold ATP: Strong phosphorylation of H2B was detected with both full length and DC Mst1

B2: myc-tagged full length Mst1 (protein)
chain: METVQLRNPPRRQLKKLDEDSLTKQPEEVFDVLEKLGEGSYGSVYKAIHKETGQIVAIKQVPVESDLQEIIKEISIMQQCDSPHVVKYYGSYFKNTDLWIVMEYCGAGSVSDIIRLRNKTLTEDEIATILQSTLKGLEYLHFMRKIHRDIKAGNILLNTEGHAKLADFGVAGQLTDTMAKRNTVIGTPFWMAPEVIQEIGYNCVADIWSLGITAIEMAEGKPPYADIHPMRAIFMIPTNPPPTFRKPELWSDNFTDFVKQCLVKSPEQRATATQLLQHPFVRSAKGVSILRDLINEAMDVKLKRQESQQREVDQDDEENSEEDEMDSGTMVRAVGDEMGTVRVASTMTDGANTMIEHDDTLPSQLGTMVINAEDEEEEGTMKRRDETMQPAKPSFLEYFEQKEKENQINSFGKSVPGPLKNSSDWKIPQDGDYEFLKSWTVEDLQKRLLALDPMMEQEIEEIRQKYQSKRQPILDAIEAKKRRQQNF
[4]
  IP kinase reaction with non-radioactive ATP, Western blot with the S14P antibody: both Mst1 FL and DC phosphorylate H2B at Ser14 as detected by the S14P antibody
  in vitro kinase assay on myc immunoprecipitates, with g(32P)-ATP or cold ATP: Strong phosphorylation of H2B was detected with both full length and DC Mst1

B3: myc-tagged kinase dead Mst1 (protein)
chain: B2 chain with K59R
[4]
  in vitro kinase assay on myc immunoprecipitates, with g(32P)-ATP or cold ATP: the kinase dead form Mst1 (which contains a single point mutation) did not phosphorylate H2B
